Square brackets hold non-standard residues; d marks the D form. Ends that are not written are not given here. Peptide text beside a SMILES is read from it.
How the values were obtained:
[1] = molecular target: T1, C5aR (Homo sapiens, UniProt P21730); experiment: Binding affinity for C5aRs on human PMNs (125I-C5a competition)
T1 construct: endogenous in cells; host or cells: intact human PMNs (polymorphonuclear leukocytes)
T1 sequence (P21730 1-350): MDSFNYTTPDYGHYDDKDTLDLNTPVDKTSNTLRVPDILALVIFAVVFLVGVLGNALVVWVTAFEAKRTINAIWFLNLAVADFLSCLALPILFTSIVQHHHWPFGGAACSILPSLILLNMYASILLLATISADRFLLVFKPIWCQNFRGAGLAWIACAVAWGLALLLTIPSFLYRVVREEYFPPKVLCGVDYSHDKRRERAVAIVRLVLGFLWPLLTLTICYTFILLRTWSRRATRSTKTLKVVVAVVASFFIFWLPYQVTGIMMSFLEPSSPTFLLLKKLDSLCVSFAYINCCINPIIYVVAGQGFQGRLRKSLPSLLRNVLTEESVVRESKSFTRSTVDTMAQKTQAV
Procedure: Pharmacologic assays. C5a-like agonistic activity was assessed by the ability of the peptides to induce smooth muscle contraction of human umbilical artery and […] from human PMNs according to previously published methods (Sanderson et al., 1994, supra; Sanderson et al., J. Med. Chem. 38, 3669, 1995; Finch et al., J. Med. Chem. 40, 877, 1997). Full concentration-response curves were generated for individual peptides and natural C5a in each assay and the EC50 values (the concentration of peptide producing 50% of the maximal response to each peptide) were calculated. pD2 transforms [−log EC50 (M)] were calculated for each concentration-response curve and reported as the mean±SE. Peptide binding affinity to the C5aR was evaluated on intact human PMNs by a competition assay using ^125I-C5a according to previously described methods (Sanderson et al., 1995, supra; Finch et al., 1997, supra). Statistical analysis of the values obtained from pharmacologic assays was performed using one-way analysis of variance (ANOVA).

[2] = tested on: human umbilical artery; experiment: Smooth muscle contraction of human umbilical artery; assay type: cell-based; settings: for EC50: concentration resulting in 50% maximum contraction; for pD2 ± SE: −log EC50 (M), mean ± SE, n 3
Procedure: (§1) Pharmacologic assays. […] Statistical analysis of the values obtained from pharmacologic assays was performed using one-way analysis of variance (ANOVA).

[3] = tested on: 51Cr-labeled P815S (HBsAg transfectant) target cells; experiment: HBsAg-specific CTL response of immunized mice (51Cr-release assay); assay type: in vivo, BALB/c mice; settings: for % Specific Lysis: s.c. in PBS, boost day 21, spleen cells day 42
[4] = tested on: human PMNs; experiment: MPO release from human PMNs; assay type: cell-based; settings: for EC50: concentration resulting in 50% maximum release of myeloperoxidase; for pD2 ± SE: −log EC50 (M), mean ± SE, n 3
Procedure: as §1

[5] = tested on: MUC1 peptide; experiment: MUC1-specific antibody isotype titers in immunized mice (ELISA); assay type: in vivo; settings: five C57BL6 mice, mean titer of responders, sera screened against MUC1 peptide

| Compound | EC50 [1] [µM] | IC50 [1] [µM] | EC50 [2] [µM] | pD2 ± SE [2] | % Specific Lysis ([3]; Effector:Target Ratio 6.25:1) [%] | % Specific Lysis ([3]; Effector:Target Ratio 12.5:1) [%] | % Specific Lysis ([3]; Effector:Target Ratio 25:1) [%] | % Specific Lysis ([3]; Effector:Target Ratio 50:1) [%] | antigen-specific CTL response ([3]; three s.c. injections of 50 μg at 21 day intervals, no added adjuvant) | EC50 [4] [µM] | pD2 ± SE [4] | MUC1 specific Ab titer, IgA [5] | MUC1 specific Ab titer, IgG1 [5] | MUC1 specific Ab titer, IgG2a [5] | MUC1 specific Ab titer, IgG2b [5] | MUC1 specific Ab titer, IgG3 [5] | MUC1 specific Ab titer, IgM [5] |
| --- | --- | --- | --- | --- | --- | --- | --- | --- | --- | --- | --- | --- | --- | --- | --- | --- | --- |
| CC[C@H](C)[C@H](N)C(=O)N1CCC[C@H]1C(=O)N[C@@H](CCC(N)=O)C(=O)N[C@@H](CO)C(=O)N[C@@H](CC(C)C)C(=O)N[C@@H](CC(=O)O)C(=O)N[C@@H](CO)C(=O)N[C@@H](Cc1c[nH]c2ccccc12)C(=O)N[C@@H](Cc1c[nH]c2ccccc12)C(=O)N[C@H](C(=O)N[C@@H](CO)C(=O)N[C@@H](CC(C)C)C(=O)N[C@@H](Cc1ccc(O)cc1)C(=O)N[C@@H](CO)C(=O)N[C@@H](Cc1ccccc1)C(=O)N[C@@H](CCCCN)C(=O)N1CCC[C@H]1C(=O)N[C@@H](CCSC)C(=O)N1CCC[C@H]1C(=O)N[C@@H](CC(C)C)C(=O)N[C@H](C)C(=O)N[C@@H](CCCNC(=N)N)C(=O)O)[C@@H](C)O (H-IPQSLDSWWTSLYSFKPMPL[dA]R-OH; N-terminus assumed) | 3.69 | 3.72 | 0.21 | 6.68 ± 0.17 | 1 | 2 | 4 | 6 | lack of a CTL response | 1.58 | 5.80 ± 0.04 | – | – | – | – | – | – |
| CC[C@H](C)[C@H](N)C(=O)N1CCC[C@H]1C(=O)N[C@@H](CCC(N)=O)C(=O)N[C@@H](CO)C(=O)N[C@@H](CC(C)C)C(=O)N[C@@H](CC(=O)O)C(=O)N[C@@H](CO)C(=O)N[C@@H](Cc1c[nH]c2ccccc12)C(=O)N[C@@H](Cc1c[nH]c2ccccc12)C(=O)N[C@H](C(=O)N[C@@H](CO)C(=O)N[C@@H](CC(C)C)C(=O)N[C@@H](CCCNC(=N)N)C(=O)N[C@@H](CCCNC(=N)N)C(=O)N[C@@H](Cc1ccc(O)cc1)C(=O)N[C@@H](CO)C(=O)N[C@@H](Cc1ccccc1)C(=O)N[C@@H](CCCCN)C(=O)N1CCC[C@H]1C(=O)N[C@@H](CCSC)C(=O)N1CCC[C@H]1C(=O)N[C@@H](CC(C)C)C(=O)N[C@H](C)C(=O)N[C@@H](CCCNC(=N)N)C(=O)NCC(=O)O)[C@@H](C)O (H-IPQSLDSWWTSLRRYSFKPMPL[dA]RG-OH; N-terminus and C-terminus assumed) | 17 | 17 | 6.78 | 5.17 ± 0.13 | – | – | – | – | – | 2.56 | 5.59 ± 0.28 | – | – | – | – | – | – |
| IPQSLDSWWTSL [free L^d MHC class I-restricted HBsAg peptide S28-39] | – | – | – | – | 3 | 3 | 5 | 7 | – | – | – | – | – | – | – | – | – |
| CC[C@H](C)[C@H](NC(=O)[C@H](CCCNC(=N)N)NC(=O)[C@H](CCCNC(=N)N)NC(=O)[C@H](CCCNC(=N)N)NC(=O)[C@@H](C)NC(=O)[C@H](CC(C)C)NC(=O)[C@@H]1CCCN1C(=O)[C@H](CCSC)NC(=O)[C@@H]1CCCN1C(=O)[C@H](CCCCN)NC(=O)[C@H](Cc1ccccc1)NC(=O)[C@H](CO)NC(=O)[C@@H](N)Cc1ccc(O)cc1)C(=O)N1CCC[C@H]1C(=O)N[C@@H](CCC(N)=O)C(=O)N[C@@H](CO)C(=O)N[C@@H](CC(C)C)C(=O)N[C@@H](CC(=O)O)C(=O)N[C@@H](CO)C(=O)N[C@@H](Cc1c[nH]c2ccccc12)C(=O)N[C@@H](Cc1c[nH]c2ccccc12)C(=O)N[C@H](C(=O)N[C@@H](CO)C(=O)N[C@@H](CC(C)C)C(=O)O)[C@@H](C)O (H-YSFKPMPL[dA]RRRIPQSLDSWWTSL-OH; N-terminus and C-terminus assumed) | 465 | 468 | 39.4 | 4.41 ± 0.06 | – | – | – | – | – | > 1000 | >3 | – | – | – | – | – | – |
| IPQSLDSWWTSLRR | – | – | – | – | 0 | 1 | 2 | 2 | – | – | – | – | – | – | – | – | – |
| YKQGGFLGL-KLH: MUC1 epitope conjugated to keyhole limpet hemocyanine (KLH) (also: conjugated to KLH) [reference compound] | – | – | – | – | – | – | – | – | – | – | – | 0 | 100 (2/5) | 0 | 0 | 0 | 5010 (4/5) |
